In ChEMBL document CHEMBL3885881, “DrugMatrix”:

Species on record: Rattus norvegicus
Assay: DrugMatrix - Regimen: Daily Repeat
Assay type: toxicity, organism-based, Sprague-Dawley
Parameters: regimen Daily Repeat, gender Male, age 6-8 weeks
Conditions: in vivo, po, route oral GAVAGE, vehicle .5 % CMC; for ABSOLUTE BASOPHIL / ABSOLUTE EOSINOPHIL / ABSOLUTE LYMPHOCYTE / ABSOLUTE MONOCYTE / ABSOLUTE SEGMENTED NEUTROPHIL / BASOPHIL / EOSINOPHIL / ERYTHROCYTE COUNT / HEMATOCRIT / HEMOGLOBIN / LEUKOCYTE COUNT / LYMPHOCYTE / MEAN CORPUSCULAR HEMOGLOBIN / MEAN CORPUSCULAR HEMOGLOBIN CONCENTRATION / MEAN CORPUSCULAR VOLUME / MONOCYTE / NEUTROPHIL / NUCLEATED RED BLOOD CELLS / PLATELET COUNT: tissue Blood; for ALANINE AMINOTRANSFERASE / ALBUMIN / ALKALINE PHOSPHATASE / ASPARTATE AMINOTRANSFERASE / BLOOD UREA NITROGEN / CARBON DIOXIDE / CHLORIDE / CHOLESTEROL / CREATINE PHOSPHOKINASE / CREATININE / GLUCOSE / LACTATE DEHYDROGENASE / LIPASE / PHOSPHORUS / POTASSIUM / SODIUM / TOTAL BILIRUBIN / TOTAL PROTEIN / URIC ACID: tissue Plasma
[1] = 0 mg/kg, 72 h, dose level Control, time 3 day
[2] = 0 mg/kg, 120 h, dose level Control, time 5 day
[3] = 50 mg/kg, 72 h, dose level Low, time 3 day

SMILES: CC1(C)[C@H]2CC[C@]1(C)C(=O)C2 [(-)-CAMPHOR]
- ABSOLUTE BASOPHIL [1]: 0 CELLS/uL
- ABSOLUTE EOSINOPHIL [1]: 222.83 CELLS/uL
- ABSOLUTE LYMPHOCYTE [1]: 14453 CELLS/uL
- ABSOLUTE MONOCYTE [1]: 0 CELLS/uL
- ABSOLUTE SEGMENTED NEUTROPHIL [1]: 1490.83 CELLS/uL
- BASOPHIL [1]: 0%
- EOSINOPHIL [1]: 1.33%
- ERYTHROCYTE COUNT [1]: 5.76 x10E6/uL
- HEMATOCRIT [1]: 36.52%
- HEMOGLOBIN [1]: 13.45 G/DL
- LEUKOCYTE COUNT [1]: 16.17 x10E3/uL
- LYMPHOCYTE [1]: 89.33%
- MEAN CORPUSCULAR HEMOGLOBIN [1]: 23.37 pg
- MEAN CORPUSCULAR HEMOGLOBIN CONCENTRATION [1]: 36.85 G/DL
- MEAN CORPUSCULAR VOLUME [1]: 63.47 fL
- MONOCYTE [1]: 0%
- NEUTROPHIL [1]: 9.33%
- NUCLEATED RED BLOOD CELLS [1]: 0 /100WBC
- PLATELET COUNT [1]: 1239.5 x10E3/uL
- ALANINE AMINOTRANSFERASE [1]: 43.83 u/L
- ALBUMIN [1]: 4.27 G/DL
- ALKALINE PHOSPHATASE [1]: 398.83 u/L
- ASPARTATE AMINOTRANSFERASE [1]: 81.17 u/L
- BLOOD UREA NITROGEN [1]: 17.67 mg/dL
- CARBON DIOXIDE [1]: 27.5 mmol/L
- CHLORIDE [1]: 99.17 MEQ/L
- CHOLESTEROL [1]: 74 mg/dL
- CREATINE PHOSPHOKINASE [1]: 331.5 u/L
- CREATININE [1]: 0.2 mg/dL
- GLUCOSE [1]: 171.33 mg/dL
- LACTATE DEHYDROGENASE [1]: 241.67 u/L
- LIPASE [1]: 9.5 u/L
- PHOSPHORUS [1]: 12.25 mg/dL
- POTASSIUM [1]: 6.33 MEQ/L
- SODIUM [1]: 141.28 MEQ/L
- TOTAL BILIRUBIN [1]: 0.15 mg/dL
- TOTAL PROTEIN [1]: 5.98 G/DL
- URIC ACID [1]: 1.63 mg/dL
- ABSOLUTE BASOPHIL [2]: 0 CELLS/uL
- ABSOLUTE EOSINOPHIL [2]: 148.67 CELLS/uL
- ABSOLUTE LYMPHOCYTE [2]: 16020.5 CELLS/uL
- ABSOLUTE MONOCYTE [2]: 29.17 CELLS/uL
- ABSOLUTE SEGMENTED NEUTROPHIL [2]: 1468.33 CELLS/uL
- BASOPHIL [2]: 0%
- EOSINOPHIL [2]: 1%
- ERYTHROCYTE COUNT [2]: 5.78 x10E6/uL
- HEMATOCRIT [2]: 35.77%
- HEMOGLOBIN [2]: 13.4 G/DL
- LEUKOCYTE COUNT [2]: 17.67 x10E3/uL
- LYMPHOCYTE [2]: 90.5%
- MEAN CORPUSCULAR HEMOGLOBIN [2]: 23.22 pg
- MEAN CORPUSCULAR HEMOGLOBIN CONCENTRATION [2]: 37.47 G/DL
- MEAN CORPUSCULAR VOLUME [2]: 61.92 fL
- MONOCYTE [2]: 0.17%
- NEUTROPHIL [2]: 8.33%
- NUCLEATED RED BLOOD CELLS [2]: 0.17 /100WBC
- PLATELET COUNT [2]: 1255.5 x10E3/uL
- ALANINE AMINOTRANSFERASE [2]: 46.5 u/L
- ALBUMIN [2]: 4.38 G/DL
- ALKALINE PHOSPHATASE [2]: 336 u/L
- ASPARTATE AMINOTRANSFERASE [2]: 76.5 u/L
- BLOOD UREA NITROGEN [2]: 20 mg/dL
- CARBON DIOXIDE [2]: 27.5 mmol/L
- CHLORIDE [2]: 101 MEQ/L
- CHOLESTEROL [2]: 71.33 mg/dL
- CREATINE PHOSPHOKINASE [2]: 231.83 u/L
- CREATININE [2]: 0.37 mg/dL
- GLUCOSE [2]: 168.83 mg/dL
- LACTATE DEHYDROGENASE [2]: 174 u/L
- LIPASE [2]: 8.67 u/L
- PHOSPHORUS [2]: 11.48 mg/dL
- POTASSIUM [2]: 6.82 MEQ/L
- SODIUM [2]: 143.8 MEQ/L
- TOTAL BILIRUBIN [2]: 0.2 mg/dL
- TOTAL PROTEIN [2]: 5.98 G/DL
- URIC ACID [2]: 1.83 mg/dL
- ABSOLUTE BASOPHIL [3]: 0 CELLS/uL
- ABSOLUTE EOSINOPHIL [3]: 203.67 CELLS/uL
- ABSOLUTE LYMPHOCYTE [3]: 12113.67 CELLS/uL
- ABSOLUTE MONOCYTE [3]: 0 CELLS/uL
- ABSOLUTE SEGMENTED NEUTROPHIL [3]: 916 CELLS/uL
- BASOPHIL [3]: 0%
- EOSINOPHIL [3]: 1.33%
- ERYTHROCYTE COUNT [3]: 5.4 x10E6/uL
- HEMATOCRIT [3]: 33.83%
- HEMOGLOBIN [3]: 12.8 G/DL
- LEUKOCYTE COUNT [3]: 13.23 x10E3/uL
- LYMPHOCYTE [3]: 91.33%
- MEAN CORPUSCULAR HEMOGLOBIN [3]: 23.7 pg
- MEAN CORPUSCULAR HEMOGLOBIN CONCENTRATION [3]: 37.87 G/DL
- MEAN CORPUSCULAR VOLUME [3]: 62.67 fL
- MONOCYTE [3]: 0%
- NEUTROPHIL [3]: 7.33%
- NUCLEATED RED BLOOD CELLS [3]: 0 /100WBC
- PLATELET COUNT [3]: 1197.67 x10E3/uL
- ALANINE AMINOTRANSFERASE [3]: 45.67 u/L
- ALBUMIN [3]: 4.13 G/DL
- ALKALINE PHOSPHATASE [3]: 348.67 u/L
- ASPARTATE AMINOTRANSFERASE [3]: 71.33 u/L
- BLOOD UREA NITROGEN [3]: 13.33 mg/dL
- CARBON DIOXIDE [3]: 28.67 mmol/L
- CHLORIDE [3]: 99.67 MEQ/L
- CHOLESTEROL [3]: 58 mg/dL
- CREATINE PHOSPHOKINASE [3]: 220.33 u/L
- CREATININE [3]: 0.19 mg/dL
- GLUCOSE [3]: 174.67 mg/dL
- LACTATE DEHYDROGENASE [3]: 227.67 u/L
- LIPASE [3]: 8 u/L
- PHOSPHORUS [3]: 12.33 mg/dL
- POTASSIUM [3]: 6.44 MEQ/L
- SODIUM [3]: 143.07 MEQ/L
- TOTAL BILIRUBIN [3]: 0.23 mg/dL
- TOTAL PROTEIN [3]: 5.67 G/DL
- URIC ACID [3]: 1.7 mg/dL
